According to US20040170622A1, “Methods and compositions for modulating XBP-1 activity” (President and Fellows of Harvard College, priority 2002, published 2004):

Key:
Type in all cases: cell-based
[1] = tested on: XBP-1u and XBP-1s proteins; test: XBP-1u and XBP-1s protein levels in J558 cells (Western blot); settings: J558 cells, 16 hrs
Experimental: (§1) (A) BiP and CHOP induction was examined by northern blot analysis after treating NIH3T3 or J558 myeloma cells with either MG-132 (20 μM), Tm (10 μg/ml) or both. Cells were pretreated with MG-132 for 1 hr and then further treated with Tm for 4 hrs. Ethidium bromide staining of the gel is shown at the bottom. (B) Inhibition of caspase-12 processing by proteasome inhibitors. Processing of full-length caspase-12 was examined by Western blotting in J558 myeloma cells treated with thapsigargin (1 μM) or PIs (20 μM) during the indicated time periods. (C) Alteration in the ratio of XBP-1 protein species in J558 cells were treated with increasing amounts of MG-132 for 16 hrs. Cells undergoing apoptosis were counted by Annexin V staining. (D) Time course of the XBP-1s to XBP-1u shift. Cells were treated with MG-132 (1 μM) for the indicated times and XBP-1u and spliced protein levels and cell death determined. (E) Alteration in the ratio of XBP-1 species in the MM.1s human myeloma line. Cells were treated with PS-341 (8 nM) in a time course analysis and XBP-1 protein species quantified.
Cells were lysed in RIPA buffer (50 mM Tris pH 7.4, 150 mM NaCl, 1 mM EDTA, 1% Triton X-100, 1% sodium deoxycholate, 0.1% SDS) and lysates subjected to SDS-PAGE and transferred to Hybond P membrane (Amersham-Pharmacia, Piscataway, N.J.). […] HeLa cells were cotransfected with XBP-1u and His-tagged ubiquitin expression plasmids (pMT 107, D. Bohmann, EMBL, Germany) by using the Lipofectamine-2000 reagent (Invitrogen, Carlsbad, Calif.). […] Degradation rates of XBP-1u and XBP-1s proteins were determined by pulse labeling J558 cells with ^35S Met/Cys for 1 hr and chasing for the indicated times.

[2] = tested on: IRE1α-mediated XBP-1 mRNA splicing; test: XBP-1 mRNA level and splicing in J558 cells (Northern blot, RT-PCR); settings: J558, Tm 4 hrs; MG-132 10 μM, PS-341 10 μM, ZL3VS 50 μM, AdaAhxL3VS 50 μM
Experimental: (A) XBP-1 mRNA levels in ER stressed J558 cells treated with Tm for 4 hrs in the absence or presence of MG-132. Cells were pretreated with MG-132 for 1 hr before adding Tm. XBP-1 mRNA levels were determined by Northern blot analysis. […] (C) Effect of a panel of PIs on XBP-1 splicing. Cells were treated with Tm for 4 hrs in the absence or presence of MG-132 (10 μM), PS-341 (10 μM), Lactacystin (10 μM), ZL3VS (50 μM) or AdaAhxL3VS (50 μM), and XBP-1 mRNA splicing measured by RT-PCR analysis. (D) IRE-1α phosphorylation in NIH3T3 cells were treated with Tm as indicated after 2 hrs of pretreatment with MG-132 (10 μM).
Total RNA was prepared by using Trizol reagent, electrophoresed on 1.2% agarose, 6% formaldehyde gels and then transferred onto Genescreen Plus membrane, (NEN, Boston, Mass.). […] Probes for ERdj4 and p58^IPK were generated from cDNA excised from EST clones (ATCC, Manassas, Va.) using appropriate restriction enzymes (ERdj4, IMAGE: 1920927; p58^IPK, IMAGE:2646147).

[3] = tested on: XBP-1 protein; test: XBP-1 protein species in MOPC315 and MM.1S myeloma cells treated with proteasome inhibitors (Western blot); settings: mouse myeloma MOPC315 and human myeloma MM.1S
Experimental: A variety of reversible and irreversible inhibitors that inhibit degradation of proteins by the ubiquitin-proteasome pathway have recently been identified. Proteasome inhibitors MG132 and PS341 block the rapid degradation of ubiquitinated proteins such as unspliced, but not spliced XBP-1. Myeloma cells express primarily spliced XBP-1 protein as expected. […] In this experiment lysates from MOPC315 cells were untreated or treated for 6 hours with 5 ug/ml of tunicamycin or 20 uM of MG-132 and were analyzed for the presence of XBP-1 using XBP-1 antibody. The two forms of XBP-1 were distinguished by their molecular weight.
In the presence of proteasome inhibitors, unspliced XBP-1 protein accumulates in the cell and is present at higher levels than the spliced protein. Lysates from Mm. 1S cells were untreated or treated for 1, 4, or 8 hours with 20 uM of PS-341 and were analyzed by western blotting with anti-XBP-1 antibody. Because unspliced, but not spliced XBP-1 is stabilized, the ratio of unspliced to spliced XBP-1 increases in cells treated with proteasome inhibitors.

[4] = tested on: XBP-1s and XBP-1u; test: Ratio of XBP-1 species in MM.1s line and primary MM cells; settings: human MM cell line MM.1s and primary MM cells from patient bone marrow
Experimental: as §1

[5] = tested on: J558 myeloma cells; test: Apoptosis of J558 myeloma cells (Annexin V staining); settings: agent alone
Experimental: as §1
(A) Synergistic effect of Tm and MG-132 on apoptosis. Annexin V positive cells were counted after treating J558 cells for 18 hrs with suboptimal concentrations of Tm and MG-132 as indicated. (B) J558-iXBP cells were generated by retroviral transduction of J558 cells with the U6 promoter based XBP-1 RNAi vector. (C) XBP-1 dependent gene expression in J558 cells that express control GFP, dn-XBP or iXBP-1 treated with Tm. Generation of dn-XBP-1 J558 cells by infection with a retrovirus containing dn-XBP cDNA inserted into the GFP-RV vector (N. N. lwakoshi et al., Nature Immunology 4, 321-329 (2003)). ERdj4, p58^IPK, BiP and CHOP gene expression were examined by Northern blot analysis. (D) Increased apoptosis in iXBP-1 and dn-XBP-1 expressing J558 cells. Cells were treated with the indicated amounts of Tm for 48 hrs and dead cells counted after Annexin V staining.
Cells were stained with annexin V-PE (BD PharMingen, San Jose, Calif.) as recommended and analyzed on a FACScan flow cytometer (Becton Dickinson, San Jose, Calif.).

Structure (SMILES): CC(C)C[C@H](NC(=O)[C@H](Cc1ccccc1)NC(=O)c1cnccn1)B(O)O [PS-341]
- XBP-1u accumulation and XBP-1s decrease [1]: striking accumulation of XBP-1 u and a concomitant decrease in XBP-1s proteins
- effect on Tm-induced XBP-1 mRNA splicing [2]: suppressed XBP-1 mRNA splicing as efficiently as MG-132
- amount of unspliced XBP-1 protein [3]: dramatic increase in the amount of unspliced XBP-1 protein
- levels of active spliced XBP-1 protein [3]: concomitant decrease in levels of the active spliced XBP-1 protein
- shift in the ratio of XBP-1s to XBP-1u [4]: induced the same marked shift in the ratio of XBP-1s to XBP-1u
- apoptosis in J558 cells [5]: induced apoptosis in J558 cells
